A melting point compilation (Tetko et al.)

| Compound | melting point |
| --- | --- |
| O=C(CCc1ccc(O)cc1)ON1C(=O)CCC1=O | 133 to 135 °C |
| CCCCN(CCCC)CCCC | -70 °C |
| O=C(O)CC(c1ccccc1)c1ccccc1 | 150 to 155 °C |
| CCc1cccc(N)c1 | -8 °C |
| CCOC(=O)CCCOc1ccc(Cl)cc1C | -1 °C |
| CC1CC2C3CC(F)C4=CC(=O)C=CC4(C)C3C(O)CC2(C)C1C(=O)CO (configuration not stated) | 188 °C |
| CC1(C(=O)O)CCCC2(C)c3cc(O)ccc3CCC12 (configuration not stated) | 194 °C |
| COc1cc(Cl)nc(N)n1 | 169 to 176 °C |
| O=S1(=O)Cc2ncc3ccccc3c2C1 | 210 °C |
| CCOC(=O)c1coc(Cl)n1 | 97.5 °C |
| O=c1[nH]c(=O)n(C2CC(O)C(CO)O2)cc1I (configuration not stated) | 263 °C |
| CSC(SC)=C(C#N)C(=O)c1ccc(Cl)cc1 | 82 to 84 °C |
| C[C@@]12CCC=C1[C@@H]1CC[C@@H]3C[C@H](O)CC[C@]3(C)[C@H]1CC2 | 129 to 130 °C |
| Cn1nc(N)c2c(=O)c(C(=O)O)c[nH]c21 | 223 to 225 °C |
| c1ccc(-c2nnc(-c3ccccn3)c(-c3ccccn3)n2)nc1 | 186 to 188 °C |
| OCc1cc(Cl)nc(Cl)c1 | 128 to 130 °C |
| CC(=O)c1ccc(NC(N)=S)cc1 | 215 °C |
| CSc1ccc2ccccc2c1 | 63 °C |
| Cn1c(=S)[nH]c2ccccc2c1=O | 271 to 272 °C |
| CC1(C)CC1 | -109 °C |
| c1ccc(-c2nsc(N3CCNCC3)n2)cc1 | 93 to 94 °C |
| C=CCc1cc(OC)c2c(c1OC)OCO2 | 29.5 °C |
| Brc1cnc(N2CCCCC2)nc1OCc1ccccc1 | 107 °C |
| CN1CCOCC1 | -65 °C |
| NNC(=O)c1ccc(N)cc1O | 195 °C |
| CN1CCN(C(=O)OC2C3=C(SCCS3)C(=O)N2c2ccc3ccc(Cl)nc3n2)CC1 (configuration not stated) | 280 °C |

| Compound | melting point |
| --- | --- |
| CCOC(=O)NNC(=O)Nc1ccc(Cl)c(Cl)c1 | 207 °C |
| CCCCCCCCCCCCCCCC(C)O (configuration not stated) | 54 °C |
| Sc1c(Cl)cccc1Cl | 45 to 50 °C |
| O=C(O)[C@@H]1CCCC[C@H]1C(=O)c1ccccc1 (relative stereo) | 150 to 153 °C |
| COc1ccc2cc(C(C)O)ccc2c1 (racemic) | 111 to 114 °C |
| O=C(OCC1c2ccccc2-c2ccccc21)Oc1c(F)c(F)c(F)c(F)c1F | 85 °C |
| CCSc1nnc(NC(=O)C(C(F)(F)F)C(F)(F)F)s1 | 159 °C |
| CCCCCC(=O)Nc1ccc(Cl)c(Cl)c1 | 106 °C |
| CC(=O)CCc1ccc(O)cc1 | 82 to 84 °C |
| COc1ccc2cc(Br)ccc2c1CCl | 144 to 146 °C |
| Cc1cc(C)n(CN(Cc2ccccc2)Cn2nc(C)cc2C)n1 | 71 °C |
| CC(C)=CCC/C(C)=N/NC(N)=O | 136 °C |
| c1cnc2cccnc2c1 | 75 °C |
| Clc1nc(-c2ccccc2)nc2ccccc12 | 123 to 128 °C |
| COc1ccccc1C1(C)CCc2oc3ccc(Cl)cc3c2-c2oc(C)cc21 (configuration not stated) | 197 to 198 °C |
| CN1CCOc2cc(C(=O)Cl)ccc21 | 96 to 100 °C |
| CN(C)C(=S)NN | 149 to 153 °C |
| O=C(O)C(=O)c1ccc([N+](=O)[O-])cc1 | 110 °C |
| FC(F)(F)Sc1ccc(CBr)cc1 | 55 °C |
| CC(=O)OC1=c2ccc([N+](=O)[O-])cc2=NC1=c1ccc(=C2N=c3cc([N+](=O)[O-])ccc3=C2OC(C)=O)cc1 | 280 °C |
| CCOC(C)OCC | -100 °C |
| Cc1cc(C)c(N)cc1C | 68 °C |
| COc1ccc(C=NNC(=O)c2ccncc2)cc1OC | 189 °C |
| O=C(Cc1ccccc1)C(c1ccccc1)N1CCCCC1 (configuration not stated) | 137 °C |
| COc1ccccc1C1(C)CCc2oc3c(Br)cc(Br)cc3c2-c2oc(C)cc21 (configuration not stated) | 194 °C |
| O=C(C=Cc1ccccc1)n1ccnc1 | 127 to 133 °C |

| Compound | melting point |
| --- | --- |
| CC/C=C/CCO | -61.5 °C |
| CCCCOC(=O)c1ccccc1O | -5.9 °C |
| CC(=O)O[C@]12CC[C@@H](C(C)(C)C)C[C@H]1O[C@@H]2c1c(F)c(F)c(F)c(F)c1F | 83 °C |
| O=[N+]([O-])c1cnc(Cl)c([N+](=O)[O-])c1 | 63 to 66 °C |
| Nc1ccc(C(c2ccccc2)(c2ccccc2)c2ccccc2)cc1 | 258 °C |
| COC(=O)CCc1cc2c(cc1NC(C)=O)NC(=O)CC2 | 245 °C |
| CN(C)c1ccc(N=C(C#N)c2cccc(C(C#N)=Nc3ccc(N(C)C)cc3)c2)cc1 | 150 °C |
| O=S(=O)(Cl)c1ccc(-c2cnco2)cc1 | 101 °C |
| COc1cc2c(cc1OC)C(=O)C2 | 141 °C |
| CCCCc1ccc(/C=N/c2ccc(C(C)=O)cc2)cc1 | 83 to 93 °C |
| O=S(=O)(O)CCCN1CCOCC1 | 284 °C |
| CC(=O)OC1CC[C@H]2[C@@H]3CC[C@@H]4C(Br)C(=O)CC[C@]4(C)[C@H]3CC[C@]12C (some centres not stated) | 181 °C |
| CCOC(=O)C=C(C)N | 33 to 35 °C |
| CCOC(=O)c1c(SC)nc2ccc(Cl)cc2c1Cl | 134 to 137 °C |
| COc1cccc(C=C[N+](=O)[O-])c1 | 91 to 93 °C |
| CC1(C)OC(=O)CC1CC(=O)O (configuration not stated) | 90 °C |
| Cc1c(C(=O)O)cc(-c2ccccc2)n1CCCN1CCOCC1 | 172 to 177 °C |
| O=C=Nc1ccc2c(c1)OCCOCCOCCOCCOCCO2 | 61 to 63 °C |
| CC(=O)NCC1CN(c2ccc(N3CCOCC3)c(F)c2)C(=O)O1 (configuration not stated) | 182 °C |
| O=C(O)c1cnc2ccccc2c1 | 277 to 283 °C |
| NC(CCCCCC(=O)O)C(=O)O (racemic) | 223 to 225 °C |
| COc1ccc(N)cc1N | 67.5 °C |
| Cc1cccc(C)c1NC(=O)C1C2C=CC(C2)C1C(=O)O (configuration not stated) | 167 °C |
| OC(CCN1CCCCC1)(c1ccccc1)C1CC2C=CC1C2 (configuration not stated) | 114 °C |
| Cc1cc(C(C)(C)C)cc(C(C)(C)C)c1O | 51 °C |
| COC(=O)c1c(SC)nc(-c2ccccc2)[nH]c1=O | 283 to 285 °C |

| Compound | melting point |
| --- | --- |
| CSc1ccc([N+](=O)[O-])cc1 | 65 to 68 °C |
| O=Cc1c(F)cc(O)cc1F | 181 °C |
| Cc1ccc(-n2c(C)nc3cc([N+](=O)[O-])ccc32)cc1 | 152 °C |
| CC(C)[C@H]1NC(=O)CNC1=O | 250 to 260 °C |
| O=C(O)c1ccc(C(F)(F)F)c(F)c1 | 175 °C |
| CC(CCC(=O)O)C1CCC2C3C(=O)C(Br)C4CC(C(=O)O)CCC4(C)C3CC(C(=O)O)C12C (configuration not stated) | 229 to 230 °C |
| Cc1csc(N)c1C(N)=O | 174 °C |
| CCOC(=O)c1c(C)n(O)c2ccc3nonc3c12 | 229 to 231 °C |
| CCCCOC(=O)C=CC(=O)OCCCC | -85 °C |
| O=C(CCCl)c1ccccc1 | 48.5 °C |
| CC(Oc1ccc(Oc2ccc(Cl)cc2Cl)cc1)C(=O)O (configuration not stated) | 120 °C |
| COc1ccc(OC2OC(CO)C(O)C(O)C2O)cc1 (configuration not stated) | 159 °C |
| CC(C)NC(=O)c1cc(F)c(Cl)nc1Cl | 159 to 161 °C |
| Cn1nc(C(=O)O)cc1-c1ccco1 | 142 to 144 °C |
| CCc1cccc(CC)c1N | 3.5 °C |
| COc1ccc(Cl)cc1C(=O)NCCc1ccc(S(=O)(=O)NC(=O)NC2CCCCC2)cc1 | 169 °C |
| CCC(C)(C)OC(N)=O | 86 °C |
| O=C1NC(=O)C2(c3ccc(Cl)cc3)c3ccccc3CCN12 (configuration not stated) | 215 to 216 °C |
| O=C(O)CC1CCCC1 | 12 °C |
| COC(=O)C1=C(C)NC(=O)NC1c1ccc2c(c1)OCO2 (configuration not stated) | 239 to 241 °C |
| N#C/C(=C\c1ccccc1)c1nc2ccccc2s1 | 105 °C |
| O=C1OC(c2ccccc2)=NC1=Cc1ccc(-c2ccc([N+](=O)[O-])cc2)o1 | 208 °C |
| CC(NC(CCCNC(=N)N)C(=O)O)C(=O)O (single isomer, unassigned; (+)) | 283 to 284 °C |
| C1OC1C1CO1 (configuration not stated) | 4 °C |
| Cn1nc(CC#N)c2c(N)ncnc21 | 135 to 138 °C |
| C(=C/c1ccco1)/c1ccc2cc3ccc(/C=C/c4ccco4)nc3cc2n1 | 272 °C |

| Compound | melting point |
| --- | --- |
| CC(C)(C(=O)O)C(O)c1ccccc1 (configuration not stated) | 134 to 137 °C |
| CN(C)C1C(=O)C(=C(N)O)C(=O)C2(O)C(=O)C3=C(O)c4c(O)ccc(Cl)c4C(O)C3CC12 (configuration not stated) | 222 °C |
| Cc1ccc(Cl)cc1O | 73 °C |
| C#Cc1ccc(-c2ccccc2)cc1 | 80 to 87 °C |
| Nc1n[nH]c2ccc(C(F)(F)F)cc12 | 135 °C |
| COC(=O)CCCCCCCCC(=O)OC | 38 °C |
| CC1(C)C(C=Cc2cc([N+](=O)[O-])cc([N+](=O)[O-])c2[O-])=[N+](Cc2ccccc2)c2ccccc21 | 244 to 246 °C |
| O=Cc1cccc(-c2ccncc2)c1 | 48 °C |
| CCc1ccccc1C(=O)N(NC(=O)c1ccccc1)C(C)(C)C | 178 °C |
| N#Cc1ccccc1CN1CCOCC1 | 49 to 50 °C |
| Brc1cccnc1Br | 59 °C |
| ClCc1ccc(Cl)nc1 | 40 °C |
| Clc1cc(Cl)c2oc3c(Cl)c(Cl)cc(Cl)c3c2c1 | 204 °C |
| Cc1ccc(C=C(C#N)C#N)cc1 | 132 to 133 °C |
| CC(=O)C1(O)CCC2(C)C(CCC3C2CCC2(C)C3CCC23OCCO3)C1 (configuration not stated) | 182 to 190 °C |
| O=Cc1c(-c2ccccc2)nn(-c2ccccc2)c1Cl | 109 to 110 °C |
| O=S(=O)(O)c1ccc(Nc2ccccc2)cc1 | 206 °C |
| CC1(C)C(=O)N(Cl)C(=O)N1Br | 164 °C |
| O=c1c(Cc2c(O)oc3ccccc3c2=O)c(O)oc2ccccc12 | 290 °C |
| CC(O)CCc1ccc2c(c1)NC(C)CC2 (configuration not stated) | 79 °C |
| Cc1cc2nc3c(=O)[nH]c(=O)nc-3n(C)c2cc1C | 320 °C |
| CC1=C(C)C(O)OC1=O (configuration not stated) | 82 °C |
| COC(=O)c1ccc(N2CCCC2)cc1 | 141 to 143 °C |
